US7989438B2, “Therapeutic compounds” (Istituto di Ricerche di Biologia Molecolare P. Angeletti SpA, priority 2007, dated 2011)

What follows are molecules tested on HCV subgenomic replication (assay: Cell based HCV replication assay (subgenomic replicon in Huh-7 cells, NS3 Cell-ELISA)). Conditions: Hepatitis C virus, Huh-7; Table 5, various macrocycles; activity ranges; read-out: IC50* (nM), Inhibition of HCV subgenomic replication.
In short: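 Huh-7 cells stably carrying the I377neo/NS3-3′/wt subgenomic replicon, seeded at 10^4 cells/well in DMEM/10% FCS and exposed to inhibitor for 96 h. NS3 expression was measured by Cell-ELISA (mAb 10E5/24, alkaline phosphatase, absorbance 405/620 nm), in duplicate. IC50 was fitted to the Hill equation, with background from parental Huh-7 cells.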

First: COc1ccc2c(c1)OC[C@@H]1CCN(C)C3CCN(CC3)S(=O)(=O)NC(=O)c3ccc4c(C5CCCCC5)c-2n(c4c3)C1 [Example 523, (20R)-30-cyclohexyl-15-methoxy-23-methyl-18-oxa-2-thia-1,3,10,23-tetraazahexacyclo[22.2.2.1^5,9.1^8,11.1^10,20.0^12,17]hentriaconta-5(31),6,8,11(30),12,14,16-heptaen-4-one 2,2-dioxide]
Second: CN1CC2CCN(CC2)S(=O)(=O)NC(=O)c2ccc3c([C@H]4CCCC[C@@H]4F)c4n(c3c2)CC(COc2ccccc2-4)C1 (single isomer, unassigned) [Example 503, 30-[(1R,2S) or (1S,2R)-2-fluorocyclohexyl]-22-methyl-18-oxa-2-thia-1,3,10,22-tetraazahexacyclo[22.2.2.1^5,9.1^8,11.1^10,20.0^12,17]hentriaconta-5(31),6,8,11(30),12,14,16-heptaen-4-one 2,2-dioxide]
The IC50 of the first is lower: less than 25 nM for the first, 25 to 150 nM for the second. The first is the more potent here.

Same assay, conditions: Table 1, 16 membered macrocycles; activity ranges; read-out: IC50* (nM), Inhibition of HCV subgenomic replication

`CN(C)CC(=O)N1CCN(C)[C@H]2COc3ccccc3-c3c(C4CCCCC4)c4ccc(cc4n3C2)C(=O)NS(=O)(=O)N(C)CC1` [Example 105, (7R)-14-cyclohexyl-21-(N,N-dimethylglycyl)-18,24-dimethyl-7,8-dihydro-6H-7,11-(epiminoethanoiminoethanoiminothioiminomethano)-indolo[1,2-e][1,5]benzoxazocin-15-one 17,17-dioxide] and `CN1CCN(CCOCc2ccccc2)CCN(C)S(=O)(=O)NC(=O)c2ccc3c(C4CCCCC4)c4n(c3c2)CC1COc1ccccc1-4` [Example 102, (7R)-21-[2-(benzyloxy)ethyl]-14-cyclohexyl-18,24-dimethyl-7,8-dihydro-6H-7,11-(epiminoethanoiminoethanoiminothioiminomethano)-indolo[1,2-e][1,5]benzoxazocin-15-one 17,17-dioxide] cannot be ordered by IC50: less than 25 nM for the first, less than 25 nM for the second.

Same assay, conditions: Table 2, various macrocycles; activity ranges; read-out: IC50* (nM), Inhibition of HCV subgenomic replication

`CCN1CCN(C)C2COc3ccc(F)cc3-c3c(C4CCCCC4)c4ccc(cc4n3C2)C(=O)NS(=O)(=O)N(C)CC1` [Example 205, (7R)-14-cyclohexyl-21-ethyl-2-fluoro-18,24-dimethyl-7,8-dihydro-6H-7,11-(epiminoethanoiminoethanoiminothioiminomethano)-indolo[1,2-e][1,5]benzoxazocin-15-one 17,17-dioxide] and `CN1CCN(C)C2COc3ccc(F)cc3-c3c(C4CCCCC4)c4ccc(cc4n3C2)C(=O)NS(=O)(=O)N(C)CC1` [Example 202, (7R)-14-cyclohexyl-2-fluoro-18,21,24-trimethyl-7,8-dihydro-6H-7,11-(epiminoethanoiminoethanoiminothioiminomethano)-indolo[1,2-e][1,5]benzoxazocin-15-one 17,17-dioxide] cannot be ordered by IC50: less than 25 nM for the first, less than 25 nM for the second.

`CCCc1cccc2c1OCC1Cn3c-2c(C2CCCCC2)c2ccc(cc23)C(=O)NS(=O)(=O)N(C)CCN(C(C)C)CCN1C` [Example 213, (7R)-14-cyclohexyl-21-isopropyl-18,24-dimethyl-4-propyl-7,8-dihydro-6H-7,11-(epiminoethanoiminoethanoiminothioiminomethano)-indolo[1,2-e][1,5]benzoxazocin-15-one 17,17-dioxide] and `CCCc1cccc2c1OCC1Cn3c-2c(C2CCCCC2)c2ccc(cc23)C(=O)NS(=O)(=O)N(C)CCN(C)CCN1C` [Example 212, (7R)-14-cyclohexyl-18,21,24-trimethyl-4-propyl-7,8-dihydro-6H-7,11-(epiminoethanoiminoethanoiminothioiminomethano)-indolo[1,2-e][1,5]benzoxazocin-15-one 17,17-dioxide] fall in the same range of IC50: 25 to 150 nM for the first, 25 to 150 nM for the second.

First: CCN1CCN(C)C2COc3cc(OC)ccc3-c3c(C4CCCCC4)c4ccc(cc4n3C2)C(=O)NS(=O)(=O)N(C)CC1 [Example 210, (7R)-14-cyclohexyl-21-ethyl-3-methoxy-18,24-dimethyl-7,8-dihydro-6H-7,11-(epiminoethanoiminoethanoiminothioiminomethano)-indolo[1,2-e][1,5]benzoxazocin-15-one 17,17-dioxide]
Second: CCN1CCNC2COc3cc(F)ccc3-c3c(C4CCCCC4)c4ccc(cc4n3C2)C(=O)NS(=O)(=O)N(C)CC1 [Example 204, (7R)-14-cyclohexyl-21-ethyl-3-fluoro-18-methyl-7,8-dihydro-6H-7,11-(epiminoethanoiminoethanoiminothioiminomethano)-indolo[1,2-e][1,5]benzoxazocin-15-one 17,17-dioxide]
The IC50 of the first is lower: less than 25 nM for the first, 25 to 150 nM for the second. The first is the more potent here.

Same assay, conditions: Table 5, various macrocycles; activity ranges; read-out: IC50* (nM), Inhibition of HCV subgenomic replication

`Cc1cccc2c1OCC1CCN(C)CCCN(C)S(=O)(=O)NC(=O)c3ccc4c(C5CCCCC5)c-2n(c4c3)C1` [Example 521, (7R)-14-cyclohexyl-4,18,22-trimethyl-7,8-dihydro-6H-7,11-(ethanoiminopropanoiminothioiminomethano)indolo[1,2-e][1,5]benzoxazocin-15-one 17,17-dioxide] and `Cc1cccc2c1OCC1Cn3c-2c(C2CCCCC2)c2ccc(cc23)C(=O)NS(=O)(=O)N(C)CCN(Cc2cnn(C)c2)CCN1C` [Example 517, (7R)-14-cyclohexyl-4,18,24-trimethyl-21-[(1-methyl-1H-pyrazol-4-yl)methyl]-7,8-dihydro-6H-7,11-(epiminoethanoiminoethanoiminothioiminomethano)-indolo[1,2-e][1,5]benzoxazocin-15-one 17,17-dioxide] cannot be ordered by IC50: less than 25 nM for the first, less than 25 nM for the second.

Work on `CN1CCCN(CCN2CCCC2)S(=O)(=O)NC(=O)c2ccc3c(C4CCCCC4)c4n(c3c2)CC(CC1)COc1ccccc1-4` (single isomer, unassigned) [Example 505, (7R) or (7S)-14-cyclohexyl-22-methyl-18-(2-pyrrolidin-1-ylethyl)-7,8-dihydro-6H-7,11-(ethanoiminopropanoiminothioiminomethano)indolo[1,2-e][1,5]benzoxazocin-15-one 17,17-dioxide] yielded an IC50 of 25 to 150 nM.

Same assay, conditions: Table A; activity ranges; Huh-7 replicon cells, 96 hours; read-out: IC50 (nM), Inhibition of HCV subgenomic replication

`CCN1CCN(CCN(C)C)C2COc3cc(F)ccc3-c3c(C4CCCCC4)c4ccc(cc4n3C2)C(=O)NS(=O)(=O)N(C)CC1` [Compound A12, (7R)-14-cyclohexyl-24-[2-(dimethylamino)ethyl]-21-ethyl-3-fluoro-18-methyl-7,8-dihydro-6H-7,11-(epiminoethanoiminoethanoiminothioiminomethano)-indolo[1,2-e][1,5]benzoxazocin-15-one 17,17-dioxide] and `CN1CCN(C)C2COc3ccccc3-c3c(C4CCCCC4)c4ccc(cc4n3C2)C(=O)NS(=O)(=O)N(C)CC1` [Compound A2, (7R)-14-cyclohexyl-18,21,24-trimethyl-7,8-dihydro-6H-7,11-(epiminoethanoiminoethanoiminothioiminomethano)indolo[1,2-e][1,5]benzoxazocin-15-one 17,17-dioxide] cannot be ordered by IC50: less than 25 nM for the first, less than 25 nM for the second.

`COc1ccc2c(c1)CC1CCN(C)CCN(C)S(=O)(=O)NC(=O)c3ccc4c(C5CCCCC5)c-2n(c4c3)C1` (centres unmarked) [Compound A10, 13-cyclohexyl-3-methoxy-17,20-dimethyl-6,7-dihydro-5H-6,10-(ethanoiminoethanoiminothioiminomethano)indolo[2,1-a][2]benzazepin-14-one 16,16-dioxide] and `CN1CCCN(C)S(=O)(=O)NC(=O)c2ccc3c(C4CCCCC4)c4n(c3c2)CC(CC1)COc1ccccc1-4` (single isomer, unassigned; (+)) [Compound A13, (+)-14-cyclohexyl-18,22-dimethyl-7,8-dihydro-6H-7,11-(ethanoiminopropanoiminothioiminomethano)indolo[1,2-e][1,5]benzoxazocin-15-one 17,17-dioxide] fall in the same range of IC50: 25 to 150 nM for the first, 25 to 150 nM for the second.
